For data set [1] the following is noted: pH 7.4; cited from earlier work.
For data set [2], the system named is H^+/OC antiporter. Further details: method as in PMID 35955563. As to conditions: trans-stimulation in hCMEC/D3 cells; cited from earlier work.
Another data set has as its system P-gp. The arrangement: method as in PMID 12814962. As to conditions: brain Kp in wild type and mdr1a knockout mice; cited from earlier work.
The test system of data set [3] is H^+/OC antiporter. The data set can be described thus: Cellular uptake into hCMEC/D3 cells after intra- and extracellular pH manipulation. In kind it is cell-based, human.
For data set [4] the following is noted: C57, mouse, 1 µM.
Text: (§1) C57 mice were used to prepare blank plasma and brain matrices throughout all binding studies.
Another data set is described as follows: in vitro. The settings on record: C57, mouse, plasma.
Data set [5] is described as follows: In vivo brain distribution by neuropharmacokinetic assessment at steady state. As to conditions: for Kp at 2 h / concentration at 2 h: male, mouse; for Kp at 2 h: brain and plasma. The arrangement: species or system mice.
Experimental: Male Abcb1a/Abcb1b-eKO1 (P-gp knockout) mice and FVB wild-type counterparts (18–24 g at arrival) were obtained from Shanghai Biomodel Organism Science & Technology Development Co. Ltd (Shanghai, China). […] Animals were housed in pairs in a temperature-controlled environment (20–24 °C) with lighting maintained under a 12-h light–dark cycle. Animals were habituated for at least seven days prior to surgery with free access to food and water.
In vivo experiments were conducted to assess the extent of the BBB transport of eletriptan and to elucidate the involvement of active transport processes. All mice were cannulated in the jugular vein for intravenous drug administration. Following surgery, the animals were allowed to recover for 3 days before administration of test compounds. Eletriptan HBr was dosed in P-gp knockout and wild type mice using a loading dose of 2 mg/kg (as bolus) followed by a 2-h constant rate infusion of 3 mg/kg (1.5 mg/kg/h) dissolved in 0.9% NaCl. […] Throughout all studies a dose volume of 10 mL/kg was applied. Serial blood samples were taken from the saphenous vein during the infusion to verify steady state and at the end of infusion. Terminal blood samples were collected from all animals. Brain samples were prepared by homogenization using ultrasonication as described previously [39] and analyzed together with the plasma samples using LC–MS/MS [39].
The total brain and plasma concentration partition coefficient (Kp) was calculated from Eq. 7.7 Kp=Ctot,brain,ss/Ctot,plasma,ss where Ctot,brain,ss and Ctot,plasma,ss is the total drug concentration at steady state in brain and plasma, respectively.
The unbound brain and plasma partition coefficient (Kp,uu) was derived from dividing the unbound brain concentration with the unbound plasma concentration at the end of infusion for each animal. The Kp,uu was calculated from Eq. 8.8 Kp,uu=Ctot,brain,ss·fu,brain/Ctot,plasma,ss·fu,plasma where fu,brain and fu,plasma is the fraction of unbound drug in the brain and plasma, respectively.
On the set-up of data set [6]: method as in PMID 32173558. The settings on record: cited from earlier work.

Where two headings read alike, the source gives them in different places. Where only a bound is given, the exact number is not on record here.

By fraction unbound is commonly meant free concentration divided by total concentration. Lower therefore signals little free substance.

Text for in vitro: as §1

For the compound `CN1CCC[C@@H]1Cc1c[nH]c2ccc(CCS(=O)(=O)c3ccccc3)cc12` [Eletriptan], in data set [1], the “cLogD pH 7.4” value was 1.1. Besides, the “H^+/OC antiporter substrate” value with H^+/OC antiporter [2] is “might be a substrate of the H^+/OC antiporter”. For the same compound, in the data set on P-gp, the P-gp substrate entry is “substrates of P-gp”. In the data set with H^+/OC antiporter [3] (acute exposure to 30 mM NH4Cl vs control pH 7.4), the “Cellular uptake after intracellular alkalization” value is on record as “decreased”. Also, the “Cellular uptake at extracellular acidification” value in the data set with H^+/OC antiporter [3] (extracellular pH 6.8 vs pH 7.4) is given as “did not affect”. Also, the “Cellular uptake at extracellular alkalization” value with H^+/OC antiporter [3] (extracellular pH 8.2 vs pH 7.4) is reported as “slight decrease”. Also, the “Proton-gradient dependence of uptake” value with H^+/OC antiporter [3] (hCMEC/D3 cells) is on record as “yes”. Further, in the data set with H^+/OC antiporter [3] (preexposure to 30 mM NH4Cl followed by media change vs control), the “Cellular uptake after intracellular acidification” value is given as “statistically significant increase”. The “fu,plasma” value in data set [4] is given as 40%. In data set [4] (plasma), the “fu,brain” value is given as 8.3%. Also, the fraction unbound at 1 µM in the data set “in vitro” (fu,brain) is 0.083; in “in vitro” (fu,plasma) it was 0.4. For the same compound, in data set [5] (knockout vs wild type), the “Increase of brain uptake (Kp, Kp,uu) in mdr1a/1b knockout vs wild type mice” value is given as above 30 fold. Also, the Kp at 2 h came to 6.35 ± 0.91 in data set [5] (Abcb1a/Abcb1b-eKO1 (P-gp knockout), intravenous, mdr1a/1b knockout mice, steady state, read-out: Kp (C,brain/C,plasma)); 1.32 in data set [5] (Abcb1a/Abcb1b-eKO1 (P-gp knockout), intravenous, mdr1a/1b knockout mice, steady state, read-out: Kp,uu (C,brain·fu,brain)/C,plasma·fu,plasma)); 0.17 ± 0.016 in data set [5] (FVB wild-type (eletriptan), C57BL/6N (diphenhydramine), intravenous, wild type mice, steady state, read-out: Kp (C,brain/C,plasma)); 0.04 in data set [5] (FVB wild-type (eletriptan), C57BL/6N (diphenhydramine), intravenous, wild type mice, steady state, read-out: Kp,uu (C,brain·fu,brain)/C,plasma·fu,plasma)). For the same compound, the concentration at 2 h in data set [5] (Abcb1a/Abcb1b-eKO1 (P-gp knockout), brain, intravenous, mdr1a/1b knockout mice, steady state, read-out: C,brain) was 1450 ± 175 ng/mL; in data set [5] (Abcb1a/Abcb1b-eKO1 (P-gp knockout), plasma, iv, mdr1a/1b knockout mice, steady state, 2-h i.v. infusion, read-out: C,plasma), 229 ± 6 ng/mL; in data set [5] (FVB (wild type and Abcb1a/Abcb1b knockout), plasma, intravenous, bolus dose followed by 2-h constant infusion, read-out: Plasma concentrations at steady state), 259 ± 30 ng/mL; in data set [5] (FVB wild-type (eletriptan), C57BL/6N (diphenhydramine), brain, intravenous, wild type mice, steady state, read-out: C,brain), 41 ± 5 ng/mL; in data set [5] (FVB wild-type (eletriptan), C57BL/6N (diphenhydramine), plasma, iv, wild type mice, steady state, 2-h i.v. infusion, read-out: C,plasma) it was 240 ± 18 ng/mL. For the same compound, the “Clinically relevant human peak plasma concentrations” value in data set [6] is 94 to 200 ng/mL. For the same compound, the “Clinically relevant plasma concentrations” value in data set [6] (human) was 246 to 523 nM.

(Values after PMC11071266, “The putative proton-coupled organic cation antiporter is involved in uptake of triptans into human brain capillary endothelial cells” (Fluids and Barriers of the CNS, 2024).)
